Measured values from patent US20170151373A1, “ANTIMICROBIAL SOLUTIONS WITH ENHANCED STABILITY” (Board of Regents, The University of Texas System, priority 2015, published 2017).
Where two headings read alike, the source gives them in different places.

How the values were obtained:
[1] = pH measurement of solutions (pH meter); format: physicochemical
Experimental: A solution containing disodium EDTA that was pH adjusted using base was prepare by the following method: • 1. Weigh out 300 mg disodium EDTA powder in 30 ml vial, and dissolve in 9.3 mL sterile water. Shake EDTA and sterile water until completely dissolved. QS to 10 ml with water. […] Measure pH, Add 1M NaOH recording volume added and remeasure pH.
A solution containing tetrasodium EDTA pH adjusted with disodium EDTA was prepared by the following method: • 1. Weigh out 300 mg disodium EDTA powder in 30 ml vial, and dissolve in 9.3 mL sterile water. Shake EDTA and sterile water until completely dissolved. QS to 10 ml with water. […] Weigh out 300 mg tetrasodium EDTA powder in 30 ml vial, and dissolve in 9.3 mL sterile water. Shake EDTA and sterile water until completely dissolved. QS to 10 ml with water. […] Measure pH of tetrasodium EDTA and add disodium EDTA recording volume added and pH after each addition • The following solutions were produced:
7. Prepare 19 syringes with 1 mL in each syringe. (1-3 mL sterile syringe can be used) Label the syringes and protect from light. • The pH from seven syringes, sampled randomly, were measured using a pH meter.

[2] = cited from earlier work; for fraction of EDTA that is tetravalent: 0.1 Molar (Harris 2010)

O=C([O-])CN(CCN(CC(=O)O)CC(=O)O)CC(=O)[O-].[Na+].[Na+] [3% disodium EDTA, Ethylenediamine-N,N,N′,N′,-tetraacetic acid, disodium salt] gave a pH ([1]; 10 ml 3% disodium EDTA, total volume 1M NaOH added 0) of 4.5, a pH ([1]; 10 ml 3% disodium EDTA, total volume 1M NaOH added 0.5 ml) of 4.9 and a pH ([1]; 10 ml 3% disodium EDTA, total volume 1M NaOH added 1.0 ml) of 5.4. The pH ([1]; 10 ml 3% disodium EDTA, total volume 1M NaOH added 1.5 ml) was 6.9 and the pH ([1]; 10 ml 3% disodium EDTA, total volume 1M NaOH added 1.7 ml) was 7.4.
With O=C([O-])CN(CCN(CC(=O)[O-])CC(=O)[O-])CC(=O)[O-].[Na+].[Na+].[Na+].[Na+] [3% tetrasodium EDTA, Ethylenediamine-N,N,N′,N′-tetraacetic acid, tetrasodium salt] the pH ([1]; 5 ml 3% tetrasodium EDTA, total volume 3% disodium EDTA added 0) was 10.9, the pH ([1]; 5 ml 3% tetrasodium EDTA, total volume 3% disodium EDTA added 1 ml) was 10.2 and the pH ([1]; 5 ml 3% tetrasodium EDTA, total volume 3% disodium EDTA added 2 ml) was 9.5. The pH ([1]; 5 ml 3% tetrasodium EDTA, total volume 3% disodium EDTA added 3 ml) was 9.0, the pH ([1]; 5 ml 3% tetrasodium EDTA, total volume 3% disodium EDTA added 4 ml) was 8.8 and the pH ([1]; 5 ml 3% tetrasodium EDTA, total volume 3% disodium EDTA added 5 ml) was 8.1. The pH ([1]; 5 ml 3% tetrasodium EDTA, total volume 3% disodium EDTA added 6 ml) was 7.1.
In the case of O=C([O-])CN(CCN(CC(=O)[O-])CC(=O)O)CC(=O)[O-].[Na+].[Na+].[Na+] [Trisodium EDTA, Ethylenediamine-N,N,N′,N′,-tetraacetic acid, trisodium salt], the pH ([2]; vendor product (Dissolvine NA3-36)) is given as 9.5.
For O=C(O)CN(CCN(CC(=O)O)CC(=O)O)CC(=O)O [pure tetra-acid EDTA, Ethylenediamine-N,N,N′,N′,-tetraacetic acid], the pH ([1]; in water/ethanol, Example 1) is given as 3.1, the “fraction of EDTA that is tetravalent” value ([2]; pH 6, 20 degrees Celsius) is given as “about 0.000018” and the “fraction of EDTA that is tetravalent” value ([2]; pH 8, 20 degrees Celsius) is given as “about 0.0042”.
